Results reported in PMC7942396, “Drug Repurposing Screen for Compounds Inhibiting the Cytopathic Effect of SARS-CoV-2” (Frontiers in Pharmacology, 2021).
Structures can show the parent of a compound that is named as a salt. Where two headings read alike, the source gives them in different places. *1 amine or outer side, *2 acyl side, *3 side chain or, on linkers, in order; H or OH if unused. Where a SMILES comes first, the peptide text is derived from it. Bridges are numbered along the chain shown (N, C = ends). [ ]: non-standard residue; d: D form. The star is where a group is joined. pTerphenylCO(4''-OnC5H11) = CCCCCOc1ccc(-c2ccc(-c3ccc(C(=O)*)cc3)cc2)cc1; Orn(4R-OH,5R-OH) = O=C([C@H](C[C@@H](O)[C@@H](O)N[*:3])N[*:1])[*:2]; hTyr(3S-OH,4S-OH) = N[C@H](C(=O)O)[C@H](O)[C@@H](O)c1ccc(O)cc1; Pro(3S-OH,4S-Me) = C[C@H]1CN[C@H](C(=O)O)[C@H]1O; Hyp = O=C(O)[C@@H]1C[C@@H](O)CN1

Columns and labels:
[1] = test system: SARS-CoV-2 (USA_WA1/2020); assay: microbe, parasite or virus in culture; type: cell-based; details: for EC50: read-out: CPE EC50
in vitro = details: African green monkey
Vero E6 cells = details: cytotoxicity counter-assay, Vero E6 cells without virus
[2] = Severe acute respiratory syndrome coronavirus 2, Vero C1008, SARS-CoV-2 CPE assay, Vero E6 cells, confirmed anti-SARS-CoV-2 compounds
[3] = Severe acute respiratory syndrome coronavirus 2, Vero C1008, SARS-CoV-2 CPE assay, Vero E6 cells, efficacy, read-out: CPE % Efficacy
[4] = Severe acute respiratory syndrome coronavirus 2, Vero C1008, SARS-CoV-2 CPE assay, Vero E6 cells, read-out: CPE % Efficacy
[5] = Severe acute respiratory syndrome coronavirus 2, Vero C1008, SARS-CoV-2 CPE assay, Vero E6 cells

SMILES | EC50 [1, 2] [µM] | Emax [1, 3] [%] | CC50 (in vitro) [µM] | cytotoxicity (in vitro) [%] | cytotoxicity at 72 h (in vitro) [%] | also measured
Oc1c(Cl)cc(Cl)c2cccnc12 [Chloroxine] | 11.2 | 64.9 | 7.08 | 61.5 |  | 
CC1(C)CC(=O)c2c(C(F)(F)F)nn(-c3ccc(C(N)=O)c(N[C@H]4CC[C@H](OC(=O)CN)CC4)c3)c2C1 [SNX-5422] | 1.58 | 33.8 | 0.56 | 27.4 |  | 
O=c1ccc2ccc(OCCCCN3CCN(c4cccc5sccc45)CC3)cc2[nH]1 [Brexpiprazole] |  |  | 11.2 | 25.1 |  | Emax [1, 4]: 94.9%; EC50 [1, 5]: 14.1 µM
Cn1c(NC[C@@H](N)Cc2ccccc2)nc(-c2ccncc2)c(-c2ccc3ccccc3c2)c1=O [AMG-548] | 8.91 | 75 |  |  | 35.4 | CC50 at 72 h (in vitro): 17.8 µM
CCCCCOc1ccc(-c2ccc(-c3ccc(C(=O)N[C@H]4C[C@@H](O)[C@@H](O)NC(=O)[C@@H]5[C@@H](O)[C@@H](C)CN5C(=O)[C@H]([C@@H](C)O)NC(=O)[C@H]([C@H](O)[C@@H](O)c5ccc(O)cc5)NC(=O)[C@@H]5C[C@@H](O)CN5C(=O)[C@H]([C@@H](C)O)NC4=O)cc3)cc2)cc1 [Anidulafungin] ({pTerphenylCO(4''-OnC5H11)}-[Orn(4R-OH,5R-OH)]T[Hyp][hTyr(3S-OH,4S-OH)]T[Pro(3S-OH,4S-Me)]; lactam 1-C) | 6.95 | 68.4 | 8.75 | 33.7 |  | 
COc1cc(O)c2c(c1)[C@H]1O[C@@H]1C[C@H](O)[C@H](O)C(=O)/C=C\C[C@H](C)OC2=O [Hypothemycin] |  |  | 12.6 | 60.1 |  | Emax [1, 4]: 81.2%; EC50 [1, 5]: 12.6 µM
O=c1[nH]c2ccccc2n1CCCN1CCN(C(c2ccccc2)c2ccccc2)CC1 [Oxatomide] | 10 | 83.9 |  |  | 31.3 | 
CC#C[C@@H](CC(=O)O)c1ccc(OCc2cccc(-c3ccc(C(F)(F)F)cc3)c2)cc1 [AMG-837] | 11.2 | 106 | 15.8 | 20.2 |  | 
CN(C)CCC=C1c2ccccc2CCc2ccccc21 [Amitriptyline hydrochloride] |  |  |  | 0 |  | Emax [1, 4]: 69.9%; EC50 [1, 5]: 14.1 µM
Cc1cc(O[C@@H](CCC(F)(F)F)c2ccc(C(=O)NCCC(=O)O)cc2)cc(C)c1-c1ccc(C(C)(C)C)cc1 [Adomeglivant] | 3.16 | 49.2 |  |  | 37 | 
Nc1nc(Nc2ccc3c(c2)CC[C@@H](N2CCCC2)CC3)nn1-c1cc2c(nn1)-c1ccccc1CCC2 [Bemcentinib] | 3.55 | 69.6 |  |  | 115 | CC50 at 72 h (in vitro): 11.2 µM
COc1ccc(-c2csc(NC(=O)[C@H]3CCCCN3S(=O)(=O)c3ccc(C)cc3)n2)cc1 [ML277] | 10 | 45.4 |  | 0 |  | 
CN1CCC(=C2c3ccccc3CCc3sccc32)CC1 [Pizotifen] | 11.2 | 111 |  |  | 13.4 | CC50 at 72 h (in vitro): 11.2 µM
CCCCc1oc2ccccc2c1C(=O)c1cc(I)c(OCCN(CC)CC)c(I)c1 [Amiodarone hydrochloride, reference compound] |  |  |  | < 30 |  | Emax ([1]; Severe acute respiratory syndrome coronavirus 2, Vero C1008, […], DMSO 0%, no-virus control 100%, hit confirmation, read-out: CPE % efficacy): 100%
N#Cc1ccc2[nH]cc(CCCCN3CCN(c4ccc5oc(C(N)=O)cc5c4)CC3)c2c1 [Vilazodone Hydrochloride] |  |  |  |  | 25.3 | Emax [1, 4]: 90.8%; EC50 [1, 5]: 12.6 µM; CC50 at 72 h (in vitro): 19.9 µM
Clc1ccc2c(c1)C(N1CCNCC1)=Nc1ccccc1O2 [Amoxapine] |  | 34.1 |  | 13.9 |  | 
CCCCCCCCn1cc(CC(N)=O)c2cc(-c3cccc(C)c3)ccc21 [Cysmethynil] | 11.2 | 89.1 |  |  | 106 | 
COc1ccc2c(c1)[C@]1(C[C@H]1c1ccc3c(/C=C/c4ccc(CN5C[C@@H](C)O[C@@H](C)C5)cc4)n[nH]c3c1)C(=O)N2 [CFI-400945] | 11.2 | 77.8 |  |  | 31.4 | 
COc1c(C)cnc(Cn2cnc3c(Cl)nc(N)nc32)c1C [CNF-2024] | 2.24 | 51.3 | 0.35 | 21.1 |  | 
Clc1ccc2c(c1)CCc1cccnc1C2=C1CCNCC1 [Desloratadine] |  |  |  | 14.2 |  | 
CCCCCCOc1ccc(C(=N)N(CCCC)CCCC)c2ccccc12.Cl [Bunamidine hydrochloride] |  |  |  |  |  | EC50 ([1]; SARS-CoV-2 CPE assay, Vero E6 cells, confirmed anti-SARS-CoV-2 compounds): 4.47 µM; CPE % Efficacy ([1]; SARS-CoV-2 CPE assay, Vero E6 cells, efficacy): 84.9%; % Cytotox (Vero E6 cells): 109.2%; CC50 (Vero E6 cells; read-out: Cytotox CC50): 11.2 µM
